Data published in patent publication US20060183909A1, “Compositions derived from quinoline and quinoxaline, preparation and use thereof” (priority 2001, published 2006).

System: xanthurenic acid receptor
Test: Screening: displacement of [3H]-XA binding to synaptic membranes at a fixed concentration
Conditions: for % inhibition of XA binding at 10 μM* / real increase in total binding (potentiation): compound at 10 μM, 200 nM [3H]-XA, synaptic membranes; for % inhibition of XA binding at 10 μM*: xanthurenic acid set arbitrarily to 100%
Method: If this concentration produces the same or greater displacement than the same concentration of non-radiolabelled XA, then an IC50 is determined. […] The incubation time is 25 min. […] The filters are placed in scintillation vials to which 5 ml of Rotiszint® (Roth) are added and the vials are counted in a Beckman LS6000sc liquid scintillation counter. Specific binding is given as the difference between total binding and nonspecific binding. The percentage inhibition of binding that the synthetic compounds produce is calculated for each compound in relation to its positive control.

Row | SMILES | % inhibition of XA binding at 10 μM* | effect on xanthurenic acid binding, in words | real increase in total binding (potentiation)
1 | NC(=O)c1cccc2c(O)cc(C(=O)O)nc12 [Compound 37c, 8-carboxamide-4-hydroxy-quinoline-2-carboxylate acid] | 77% |  | 
2 | N#Cc1cc(CCc2ccccc2)cc2c(O)cc(C(=O)O)nc12 [Compound 65d, 8-cyano-4-hydroxy-6-phenethyl-quinoline-2-carboxylic acid] | 18% |  | 
3 | O=C(O)c1nc2c(O)c(Br)ccc2c(O)c1Br [Compound 56c, 3,7-dibromo-4,8-dihydroxy-quinoline-2-carboxylic acid] | 112% |  | 
4 | Cl.Nc1cc(N)c2nc(C(=O)O)cc(O)c2c1 [Compound 32d, 6,8-diamino-4-hydroxy-quinoline-2-carboxylic acid hydrochloride] | 117% |  | 
5 | N#Cc1cc(-c2ccccc2)cc2c(O)cc(C(=O)O)nc12 [Compound 64b, 8-cyano-4-hydroxy-6-phenyl-quinoline-2-carboxylic acid] | 14% |  | 
6 | O=C(O)c1nc2c(O)cccc2[nH]c1=O [Compound 59c, 8-hydroxy-3-oxo-3,4-dihydroquinoxaline-2-carboxylic acid] | 97% |  | 
7 | O=C(O)c1ccc2c(-c3ccccc3)ccc(O)c2n1 [Compound 19t, 8-hydroxy-5-phenyl-quinoline-2-carboxylic acid] | 50% |  | 
8 | Cc1ccc(N)c2nc(C(=O)O)cc(O)c12 [Compound 3v, 4-hydroxy-5-methyl-8-amino-quinoline-2-carboxylic acid] | 23.4% |  | 
9 | CN(C)c1cccc2c(O)cc(C(=O)O)nc12 [Compound 41d, 8-dimethylamino-4-hydroxy-quinoline-2-carboxylic acid] | 43% |  | 
10 | N#Cc1cccc2c(O)c(Br)c(C(=O)O)nc12 [Compound 66b, 3-bromo-8-cyano-4-hydroxy-quinoline-2-carboxylic acid] | 69% |  | 
11 | COc1ccc(Br)c2ccc(C(=O)O)nc12 [Compound 4g, 8-methoxy-5-bromo-quinoline-2-carboxylic acid] | 0% |  | 
12 | O=C(O)c1cc(O)c2cc(CNCc3ccccc3)cc(O)c2n1 [Compound 26a, 4,8-dihydroxy-6-(benzylamino-methyl)-quinoline-2-carboxylic acid] | 0% |  | 
13 | Cl.NCCCc1cc(O)c2nc(C(=O)O)cc(O)c2c1 [Compound 22c, 4,8-dihydroxy-6-(3-amino-propyl)-quinoline-2-carboxylic acid hydrochloride] | Potentiation | increase the binding of xanthurenic acid | (+100% real increase
14 | CCCCCCCc1cc(O)c2nc(C(=O)O)cc(O)c2c1 [Compound 22b, 4,8-dihydroxy-6-heptyl-quinoline-2-carboxylic acid] | 38% |  | 
15 | O=C(O)c1cc(O)c2cccc(Br)c2n1 [Compound 3x, 4-hydroxy-8-bromo-quinoline-2-carboxylic acid] | Potentiation | increase the binding of xanthurenic acid | (+200% real increase
16 | Cc1ccc(O)c2nc(C(=O)O)cc(O)c12 [Compound 3e, 4,8-dihydroxy-5-methyl-4-quinoline-2-carboxylic acid] | 48% |  | 
17 | O=C(O)CC1Nc2c(O)cccc2NC1=O (stereo not drawn) [Compound 60c, [8-(hydroxy)-3-oxo-3,4-dihydroquinoxaline-2(1H)-yl]acetic acid] | 69% |  | 
18 | COC(=O)c1cc(O)c2cc(Nc3ccccc3)cc(N)c2n1 [Compound 33c, Methyl-6-(N-anilino)-8-amino-4-hydroxy-quinoline-2-carboxylate] | 97% |  | 
19 | O=C(O)c1nc2c(O)cccc2c(O)c1CN1CCOCC1 [Compound 39b, 3-(N-morpholinomethyl)-4,8-dihydroxy-quinoline-2-carboxylic acid] | 77% |  | 
20 | O=C(Nc1cccc2c(O)cc(C(=O)O)nc12)c1ccccc1 [Compound 28c, 8-benzoylamino-4-hydroxy-quinoline-2-carboxylic acid] | 48.5% |  | 
21 | CNc1cc(C(=O)O)nc2c(N)cccc12.Cl [Compound 38d, 4-(N-methylamino)-8-amino-quinoline-2-carboxylic acid hydrochloride] | 72% |  | 
22 | N#Cc1cccc2c(O)c(C#Cc3ccccc3)c(C(=O)O)nc12 [Compound 67c, 8-cyano-4-hydroxy-3-phenylethynyl-quinoline-2-carboxylic acid] | 0% |  | 
23 | Nc1ccc(-c2ccccc2)c2c(O)cc(C(=O)O)nc12 [Compound 73c, 5-phenyl-8-amino-4-hydroxy-quinoline-2-carboxylic acid] | 69% |  | 
24 | N#Cc1cc(Br)cc2c(O)cc(C(=O)O)nc12 [Compound 63c, 6-bromo-8-cyano-4-hydroxy-quinoline-2-carboxylic acid] | 46% |  | 
25 | O=C(O)c1nc2c(OCc3ccccc3)cccc2c(O)c1CN1CCCC1 [Compound 40a, 3-(N-pyrrolidinomethyl)-8-benzyloxy-4-hydroxy-quinoline-2-carboxylic acid] | 83% |  | 
26 | Nc1ccc(CCCO)c2c(O)cc(C(=O)O)nc12 [Compound 75c, 5-hydroxypropyl-8-amino-4-hydroxy quinoline-2-carboxylic acid] | 31% |  | 
27 | CCc1cc(C#N)c2nc(C(=O)O)cc(O)c2c1 [Compound 69d, 8-cyano-6-ethyl-4-hydroxy-quinoline-2-carboxylic acid] | 26% |  | 
28 | COc1cccc2ccc(C(=O)O)nc12 | 13% |  | 
29 | Cc1cc(O)c2nc(C(=O)O)cc(O)c2c1 [Compound 3n, 4,8-dihydroxy-6-methyl-quinoline-2-carboxylic acid] | 21.2% |  | 

Other lines, results leading:

Row | % inhibition of XA binding at 10 μM* | effect on xanthurenic acid binding, in words | real increase in total binding (potentiation) | SMILES
30 | 3% |  |  | CNc1cccc2c(O)cc(C(=O)O)nc12.Cl [Compound 103b, 4-hydroxy-8-(methyl)amino-quinoline-2-carboxylic acid hydrochloride]
31 | 66% |  |  | Cl.O=C(O)c1cc(O)c2cccc(N3CCN(Cc4ccccc4)CC3)c2n1 [Compound 105b, 8-(4-benzyl-piperazin-1-yl)-4-hydroxy-quinoline-2-carboxylic acid hydrochloride]
32 | 92% |  |  | Cl.O=C(O)c1cc(O)c2cccc(N3CCCCC3)c2n1 [Compound 102b, 4-hydroxy-8-(piperidin-1-yl)-quinoline-2-carboxylic acid hydrochloride]
33 | 100% |  |  | N#CCCCCCc1cc(N)c2nc(C(=O)O)cc(O)c2c1 [Compound 123c, 6-(5′-cyanopentyl)-8-amino-4-hydroxy-quinoline-2-carboxylic acid]
34 | 29% |  |  | Cl.Nc1cc(CCc2cccnc2)cc2c(O)cc(C(=O)O)nc12 [Compound 122c, 6-(pyridin-3-yl)ethyl-8-amino-4-hydroxy-quinoline-2-carboxylic acid hydrochloride]
35 | 57% |  |  | Cl.NCCCc1cc(C(=O)O)nc2c(N)cccc12 [Compound 95c, 8-amino-4-(3-amino-prop-1-yl)-quinoline-2-carboxylic acid hydrochloride]
36 | Potentiation | increase the binding of xanthurenic acid | (+70% real increase | O=C(O)c1cc(=O)c2ccccc2[nH]1 [Kynurenic acid, reference compound]
37 | 37% |  |  | Cl.Nc1cccc2c(CCc3ccccc3)cc(C(=O)O)nc12 [Compound 94c, 8-amino-4-(2-phenyleth-1-yl)-quinoline-2-carboxylic acid hydrochloride]
38 | 43% |  |  | CN1CCN(c2cccc3c(O)cc(C(=O)O)nc23)CC1.Cl [Compound 107b, 8-(4-methyl-piperazin-1-yl)4-hydroxy-quinoline-2-carboxylic acid hydrochloride]
39 | 97% |  |  | Nc1cc(Cl)cc2c(O)cc(C(=O)O)nc12 [Compound 117d, 6-chloro-8-amino-4-hydroxy-quinoline-2-carboxylic acid]
40 | 29% |  |  | CN(c1ccccc1)c1cccc2c(O)cc(C(=O)O)nc12.Cl [Compound 106b, 8-[phenyl(methyl)amino]-4-hydroxy-quinoline-2-carboxylic acid hydrochloride]
41 | 20% |  |  | Cl.Nc1cccc2c(N3CCCCC3)cc(C(=O)O)nc12 [Compound 101c, 8-amino-4-(piperidin-1-yl)-quinoline-2-carboxylic acid hydrochloride]
42 | 137% |  |  | Cl.O=C(O)c1cc(N2CCCCC2)c2cccc(O)c2n1 [Compound 100c, 8-hydroxy-4-(piperidin-1-yl)-quinoline-2-carboxylic acid hydrochloride]
43 | 166% |  |  | CN1CCN(c2cc(C(=O)O)nc3c(O)cccc23)CC1.Cl [Compound 110c, 8-hydroxy-4-(4-methyl-piperazin-1-yl)-quinoline-2-carboxylic acid hydrochloride]
44 | 62% |  |  | Cl.O=C(O)c1cc(O)c2cccc(N3CCNCC3)c2n1 [Compound 108b, 4-hydroxy-8-(piperazin-1-yl)-quinoline-2-carboxylic acid hydrochloride]
45 | 220% |  |  | Cl.O=C(O)c1cc(N2CCOCC2)c2cccc(O)c2n1 [Compound 99c, 8-hydroxy-4-(morpholin-1-yl)-quinoline-2-carboxylic acid hydrochloride]
